This is an account of results in patent US20170354592A1 (ASCENDIA PHARMACEUTICALS, LLC, priority 2016, published 2017).

In one series the test system is β-adrenoceptor. To be noted: cited from earlier work; for potency as a β-adrenoceptor antagonist versus Carvedilol: relative to carvedilol, Hoffman (2001), Tenero et al (2000).
Series [1] is described as follows: Vital signs and adverse reactions after IV dose (non-invasive tail cuff). To be noted: rats iv 2.5 mg/kg. How it is done: (§1) 15 cannulated and non-cannulated, 9 and 6 rats respectively, Sprague-Dawley® male rats were divided into 3 groups. […] Treatment was administered intravenously. During the experiment, rats were inspected twice daily for vitality and as needed after dosing and intermittently and vitals, including blood pressure, heart rate, and temperature, were recorded from the non-cannulated animals. Main vital signs were monitored prior to and at multiple time points after dose administration. Blood pressure and heart rate were measured using a non-invasive tail cuff system after a brief acclimation period. Blood samples (approximately 300-325 μL each) were collected from cannulated rats at each time point into tubes containing K2EDTA.
(§2) Following centrifugation at 4° C., the plasma was collected and stored at −80° C. The blood sampling time points were as follows: prior to (PRE) and approximately 0.25, 0.5, 1, 2, 3, 8, 10 and 24 hours after dose administration. Samples were collected via Jugular Vein Cannulas.

The conditions of series [2]: cited from earlier work.
Series [3] in a line: Single IV injection of carvedilol liposomes and free-carvedilol solution, plasma PK. As to conditions: rats, single iv 2.5 mg/kg. As to the method: as §1, §2

As for `COc1cc(O)ccc1OCCNCC(O)COc1cccc2[nH]c3ccccc3c12` (stereo not shown) [4-hydroxyphenyl-carvedilol], the “potency in β-blockade versus the parent compound” value in the series on β-adrenoceptor (more potent than carvedilol) is on record as “about 13 fold”. Also, the “potency as a β-adrenoceptor antagonist versus Carvedilol” value with β-adrenoceptor was “about 13 times”.
For `Oc1ccccc1OCCNCC(O)COc1cccc2[nH]c3ccccc3c12` (stereo not shown) [desmethylcarvedilol], the “potency as a β-adrenoceptor antagonist versus Carvedilol” value in the series with β-adrenoceptor is “approximately 2.5 times”.
Turning to `COc1ccc(O)cc1OCCNCC(O)COc1cccc2[nH]c3ccccc3c12` (stereo not shown) [5-hydroxyphenyl-carvedilol], the “potency as a β-adrenoceptor antagonist versus Carvedilol” value in the series with β-adrenoceptor is given as “one-half”.
In series [1] (1 Hour after dose), “(±)-[3-(9H-carbazol-4-yloxy)-2-hydroxypropyl][2-(2-ethoxyphenoxy)ethyl] amine [Carvedilol]” displayed a Diastolic of 40, an HR of 363 Beats/min, an MAP of 69 and a Temp of 99 ° F. In series [1] (15 min after dose), this molecule showed a Diastolic of 48, an HR of 354 Beats/min, an MAP of 73 and a Temp of 98 ° F. Besides, in series [1] (30 min after dose), the Diastolic is listed as 33, the HR came out at 360 Beats/min, the MAP is 60 and the Temp came to 99 ° F. The pKa in series [2] was 7.8. Moreover, the “time after dose at which carvedilol was cleared from plasma” value in series [3] (FIG. 3) came to 3 h. Further, in series [3] (mean), the “AUC(0-T)” value amounted to 284 ng·h/mL, the “AUC(INF)” value was found to be 291 ng·h/mL, the CL worked out at 144.0 mL/min/kg and the Cmax is 354 ng/mL. In series [3] (mean), the T-HALF was 0.52 h, the Tmax turned out to be 15 min and the volume of distribution (Vss) is reported as 6.4 L/kg.
